Where two headings read alike, the source gives them in different places.
Key:
[1] = log P determination by HPLC on reversed-phase columns (C 18), analogously to OECD Guideline 117; format: physicochemical; conditions: for logP (HCOOH): LC-MS in the acidic range, pH 2.7, 0.1% aqueous formic acid / acetonitrile; for logP (HCOOH) / logP (neutral): HPLC reversed-phase C 18; for logP (neutral): LC-MS in the neutral range, pH 7.8, 0.001 molar aqueous ammonium hydrogencarbonate / acetonitrile; for chromatographic logP: reversed-phase C18 HPLC column
Summary of the method: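 Reversed-phase C18 HPLC per OECD 117 with LC-MS detection and a linear 10→95% acetonitrile gradient. Acidic log P run at pH 2.7 with 0.1% formic acid in both eluents. Neutral log P run at pH 7.8 with 0.001 M aqueous ammonium hydrogencarbonate.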

[2] = system: southern root-knot nematode (Meloidogyne incognita); assay: Meloidogyne incognita test (MELGIN); format: in vivo; conditions: lettuce in sand; application rate 20 ppm; after 14 days
Procedure: Meloidogvne incognita test (MELGIN)
Solvent: 125.0 parts by weight of acetone
To produce a suitable preparation of active compound, 1 part by weight of active compound is mixed with the stated amount of solvent and the concentrate is diluted with water to the desired concentration.
Vessels are filled with sand, active compound solution, an egg/larvae suspension of the southern root-knot nematode (Meloidogyne incognita) and lettuce seeds. The lettuce seeds germinate and the plants develop. The galls develop on the roots.
After 14 days, the nematicidal efficacy in % is determined by the formation of galls. 100% means that no galls were found; 0% means that the number of galls on the treated plants corresponds to the untreated control.

[3] = system: greenhouse red spider mite (Tetranychus urticae); assay: Tetranychus urticae spray test, OP-resistant (TETRUR), bean leaf disks; format: in vivo; conditions: bean leaf disks, after 6 days; for pest or weed control at 500 g/ha: Tetranychus urticae, foliar, 144 h, read-out: efficacy in %
Summary of the method: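 Efficacy (% mites killed) read 6 days after spraying infested Phaseolus vulgaris leaf disks. Compound preparation: acetone and dimethylformamide solvent, made up in water with 1000 ppm alkylaryl polyglycol ether emulsifier; OP-resistant mite strain, all life stages.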

[4] = acidic range, pH 2.7, 0.1% aqueous formic acid and acetonitrile, read-out: log P[a] / log P(HCOOH)
[5] = neutral range, pH 7.8, 0.001 molar aqueous ammonium hydrogencarbonate and acetonitrile, read-out: log P[b] / log P(neutral)

SMILES	logP (HCOOH) [1]	logP (neutral) [1]	nematicidal efficacy in % (formation of galls) [2]	efficacy in % ([3]; application rate 500 g/ha)	chromatographic logP [1, 4]	chromatographic logP [1, 5]	pest or weed control at 500 g/ha ([3]; application rate 500 g/ha)	efficacy in % ([3]; application rate 100 g/ha)
Cn1c(=O)n(C2CC2)c(=O)n1-c1ccc(C#N)c(SCC(F)(F)F)c1 [Example 44]	2.53	2.45	90%					
C=CCn1c(=O)n(C)n(-c2cc([S+]([O-])CC(F)(F)F)c(C)cc2F)c1=O (stereo not drawn) [Example 80]	2.07	2.03	90%	100%				
CCn1c(=O)n(C)n(-c2cc(SCC(F)(F)F)c(C)cc2F)c1=O [Example 83]	2.92	2.88	100%	100%				
Cc1cc(F)c(-n2c(=O)n(C3CC3)c(=S)n2C)cc1SCC(F)(F)F [Example 181, 4-Cyclopropyl-2-{2-fluoro-4-methyl-5-[(2,2,2-trifluoroethyl)sulfanyl]phenyl}-1-methyl-5-thioxo-1,2,4-triazolidin-3-one]			90%		3.44	3.39	90%	
Cc1ccc(-n2c(=O)n(C3CC3)c(=O)n2C)cc1SCC(F)(F)F [Example 36]	2.89	2.87	100%	100%				
Cc1cc(C)c([S+]([O-])CC(F)(F)F)cc1-n1c(=O)n(C)c(=O)n1C (stereo not drawn) [Example 33]	1.75	1.70	90%	90%				
Cn1c(=O)n(C)n(-c2cc(SCC(F)(F)F)c(Cl)cc2F)c1=O [Example 30]	2.71	2.67	90%	100%				
CCn1c(=O)n(C)n(-c2cc([S+]([O-])CC(F)(F)F)c(C)cc2F)c1=O (stereo not drawn) [Example 74]	1.93	1.91	90%					90%
Cn1c(=O)n(C)n(-c2cc([S+]([O-])CC(F)(F)F)c(Br)cc2F)c1=O (stereo not drawn) [Example 69]	2.01	1.98	90%					
Cn1c(=O)n(C2CC2)c(=O)n1-c1cc([S+]([O-])CC(F)(F)F)c(Cl)cc1F (stereo not drawn) [Example 38]	2.18	2.16	100%	100%				
C=CCn1c(=O)n(C)n(-c2cc(SCC(F)(F)F)c(C)cc2F)c1=O [Example 81]	3.05	3.01	90%					100%
COc1ccc(-n2c(=O)n(C3CC3)c(=O)n2C)cc1[S+]([O-])CC(F)(F)F (stereo not drawn) [Example 41]	1.77	1.75	90%	90%				
Cn1c(=O)n(C2CC2)c(=O)n1-c1ccc(Br)c([S+]([O-])CC(F)(F)F)c1 (stereo not drawn) [Example 45]	2.27	2.24	90%					
COc1ccc(-n2c(=O)n(C3CC3)c(=O)n2C)cc1SCC(F)(F)F [Example 42]	2.51	2.46	90%	100%				
Cc1cc(F)c(N2C(=O)C(C)(C)C(=O)N2C)cc1[S+]([O-])CC(F)(F)F (stereo not drawn) [Example 177, 1-{2-Fluoro-4-methyl-5-[(2,2,2-trifluoroethyl)sulfinyl]phenyl}-2,4,4-trimethylpyrazolidine-3,5-dione]			90%		1.89	1.85	90%	
Cc1ccc(-n2c(=O)n(C)c(=O)n2C)cc1SCC(F)(F)F [Example 20, 1,4-Dimethyl-2-{4-methyl-3-[(2,2,2-trifluoroethyl)sulfanyl]phenyl}-1,2,4-triazolidine-3,5-dione]			90%		2.59	2.58	100%	
CCn1c(=O)n(C2CC2)c(=O)n1-c1cc(SCC(F)(F)F)c(C)cc1F [Example 127]	3.19	3.17	90%	100%				
Cn1c(=O)n(C)n(-c2cc([S+]([O-])CC(F)(F)F)c(Cl)cc2F)c1=O (stereo not drawn) [Example 29]	1.93	1.91	90%	90%				
Cc1ccc(-n2c(=O)n(C3CC3)c(=O)n2CC(C)C)cc1[S+]([O-])CC(F)(F)F (stereo not drawn) [Example 50]	3.58	3.47		90%				
Cc1cc(F)c(N2C(=O)C(=O)N(CC(C)(C)C)C2=S)cc1[S+]([O-])CC(F)(F)F (stereo not drawn) [Example 195]	3.85	3.79		90%				
Cc1cc(F)c(-n2c(=O)n(C)n(C)c2=O)cc1SCC(F)(F)F [Example 116, 4-{2-Fluoro-4-methyl-5-[(2,2,2-trifluoroethyl)sulfanyl]phenyl}-1,2-dimethyl-1,2,4-triazolidine-3,5-dione]					2.4	2.39	100%	
Cc1cc(F)c(-n2c(=O)n(C3CC3)c(=O)n2C(C)C)cc1SCC(F)(F)F [Example 65]	3.59	3.51		100%				
Cc1cc(F)c(N2CCNC2=O)cc1SCC(F)(F)F [Example 9, 1-{2-Fluoro-4-methyl-5-[(2,2,2-trifluoroethyl)sulfanyl]phenyl}imidazolidin-2-one]					2.36	2.31	90%	
Cc1cc(F)c(-n2c(=O)n(C(C)C)c(=O)n2C)cc1[S+]([O-])CC(F)(F)F (stereo not drawn) [Example 92]	2.27	2.22		100%				
Cc1cc(F)c(-n2[nH]c(=O)n(C3CC3)c2=O)cc1SCC(F)(F)F [Example 66]	2.30	0.69		100%				
Cc1cc(F)c(N2C(=O)CSC2=NCC(C)(C)C)cc1SCC(F)(F)F [Example 113]	4.84	4.73		100%				
Cc1cc(F)c(-n2c(=O)n(C3CC3)c(=O)n2C)cc1[S+]([O-])CC(F)(F)F (single isomer, unassigned) [Example 151]	1.98	1.88		90%				
Cn1c(=O)n(C)n(-c2ccc(Br)c(SCC(F)(F)F)c2)c1=O [Example 68]	2.83	2.78		100%				
Cn1c(=O)n(C)n(-c2cc([S+]([O-])CC(F)(F)F)c(F)cc2F)c1=O (stereo not drawn) [Example 70]	1.64	1.59	90%					
Cc1cc(F)c(-n2c(=S)n(C3CC3)c(=S)n2C)cc1SCC(F)(F)F [Example 182, 4-cyclopropyl-1-{2-fluoro-4-methyl-5-[(2,2,2-trifluoroethyl)sulfanyl]phenyl}-2-methyl-1,2,4-triazolidine-3,5-dithione]			90%		3.83	3.76		
